Ki and melting point data for eight compounds are collected here from patent publication US20020025974A1, “BICYCLE THIOPHENES AND THIAZOLES” (priority 1998, published 2002).

The term Ki denotes the equilibrium dissociation constant of an inhibitor or competing ligand from its target. For orientation: melting point means the temperature of the solid-liquid transition.

Series [1] has as its target T1, Alpha-2D adrenergic receptor (Rattus norvegicus, UniProt P22909).
T1 construct: aliquots of the synaptic membrane fraction, the ligand ^3H-para-aminoclonidine and test drug; from tissue; host or cells: rat brain cortex synaptic membrane fraction (male Wistar rats)
T1 sequence (P22909 1-465): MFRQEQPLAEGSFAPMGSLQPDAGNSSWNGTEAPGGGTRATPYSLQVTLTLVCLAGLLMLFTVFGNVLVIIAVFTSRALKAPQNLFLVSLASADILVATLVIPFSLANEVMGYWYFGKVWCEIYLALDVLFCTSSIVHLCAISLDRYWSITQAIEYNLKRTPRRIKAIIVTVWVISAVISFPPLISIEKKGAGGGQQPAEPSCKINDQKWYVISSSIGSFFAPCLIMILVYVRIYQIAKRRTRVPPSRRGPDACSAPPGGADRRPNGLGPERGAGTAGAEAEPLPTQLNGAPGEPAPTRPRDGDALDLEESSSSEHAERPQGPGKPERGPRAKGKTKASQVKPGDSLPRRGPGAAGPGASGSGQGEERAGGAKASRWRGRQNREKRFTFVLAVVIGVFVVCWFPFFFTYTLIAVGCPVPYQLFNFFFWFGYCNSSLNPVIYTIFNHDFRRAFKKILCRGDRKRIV
Briefly: Alpha-2D adrenergic receptor binding assay (3H-para-aminoclonidine, rat cortex synaptic membranes). The settings on record: ligand 3H-para-aminoclonidine, 25° C. 20 min. The procedure:
Alpha-2D adrenergic receptor binding assay
Male, Wistar rats (150-250 g, VAF, Charles River, Kingston, N.Y.) are sacrificed by cervical dislocation and their brains removed and placed immediately in ice cold HEPES buffered sucrose. The cortex is dissected out and homogenized in 20 volumes of HEPES sucrose in a Teflon™-glass homogenizer. The homogenate is centrifuged at 1000 g for 10 min, and the resulting supernatant centrifuged at 42,000 g for 10 min. The resulting pellet is resuspended in 30 volumes of 3 mM potassium phosphate buffer, pH 7.5, preincubated at 25° C. for 30 min and recentrifuged. The resulting pellet is resuspended as described above and used for the receptor binding assay. […] The incubation is terminated by filtration of the tube contents through glass fiber filter sheets. Following washing of the sheets with 10 mM HEPES buffer, the adhering radioactivity is quantified by liquid scintillation spectrometry.
Binding of the test drug to the receptor is determined by comparing the amount of radiolabeled ligand bound in control tubes without drug to the amount of radiolabeled ligand bound in the presence of the drug. Dose-response data are analyzed with LIGAND, a nonlinear curve fitting program designed specifically for the analysis of ligand binding data.

Counter-ions that a name gives are not always drawn. Like-named read-outs stand apart in the source and are kept apart here.

In series [1] (α2D Ki), `Brc1c(Cc2c[nH]cn2)sc2ccccc12` [Cp-4] returned a Ki of 0.22 nM. Still for that read-out and setting: with `c1ccc2c(Cc3c[nH]cn3)csc2c1` [Cp-6] the figure was 0.09 nM. Consider `c1nc(Cc2nc3c(s2)CCCC3)c[nH]1` [Cp-11], for which, in series [1] (read-out: α2D Ki), the Ki came out at 110 nM.

With `OC(c1c[nH]cn1)c1cc2ccccc2s1` (centres unmarked) [Cp-2], the Ki in series [1] (α2D Ki) is 74.9 nM. On the same count and under the same terms, the figure for `c1ccc2sc(Cc3c[nH]cn3)cc2c1` [Cp-1] is 1.1 nM.

In the case of `CC(c1c[nH]cn1)c1cc2ccccc2s1` (centres unmarked) [Cp-3], the Ki in series [1] (α2D Ki) stood at 14 nM.

On to `c1ccc2sc(-c3c[nH]cn3)cc2c1` [Cp-9], for which the Ki in series [1] (read-out: α2D Ki) was 18 nM. `c1nc(Cc2nc3c(s2)CCCC3)c[nH]1` (as salt: fumaric acid salt) [Cp-11] displayed a melting point of 169 to 171 °C.
